Several values for one entry are separate records, joined by “and”; a condition that tells them apart may be missing. Identical values can stand only once. Like-named read-outs stand apart in the source and are kept apart here.
What was measured:
UCP1 [1] = biological target: T1, UCP1 (Homo sapiens, UniProt P25874); experiment: Isothermal titration calorimetry of nucleotide binding; design: isotherm data point (enthalpy change per injection): unit not given here; details: for isotherm data point (enthalpy change per injection): representative isotherm;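 on all read-outs here: purified human UCP1 in cacodylate buffer with lauryl maltose neopentyl glycol and cardiolipin, titrated with nucleotides, isotherms fitted by one-site model yielding ΔH, Kd and stoichiometry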
T1 construct: His8 (N, cleaved yes); Factor Xa protease cleavage site (N, cleaved yes); made in house; host or cells: Saccharomyces cerevisiae strain W303.1B
T1 sequence (P25874 1-307): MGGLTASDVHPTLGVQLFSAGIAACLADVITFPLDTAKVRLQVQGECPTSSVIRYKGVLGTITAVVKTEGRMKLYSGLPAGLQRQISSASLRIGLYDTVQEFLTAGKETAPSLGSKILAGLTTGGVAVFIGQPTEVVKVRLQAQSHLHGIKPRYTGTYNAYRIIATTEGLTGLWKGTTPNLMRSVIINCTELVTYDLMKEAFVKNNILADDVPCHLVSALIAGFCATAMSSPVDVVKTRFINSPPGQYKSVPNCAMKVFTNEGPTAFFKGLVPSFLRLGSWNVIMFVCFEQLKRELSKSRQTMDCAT

UCP1 [2] = biological target: T1, UCP1; experiment: Differential scanning fluorimetry (nanoDSF) thermal stability shift assay; format: binding; details: for ΔTm at 1000 µM: read-out: thermal shift (ΔTm)
[3] = biological target: T2, human uncoupling protein 1 (human, UniProt P25874); experiment: cryo-EM structure; UCP1, PMb65 and PMb71 mixed stoichiometrically, overnight at 4 °C; complex separated by SEC (20 mM MES pH 6.0, 150 mM NaCl, 0.02% lauryl maltose neopentyl glycol, 0.02 mg/mL tetraoleoyl cardiolipin, 1 mM TCEP); 2 mM UTP and 2 mM D-maltose added; 3.03 Å; details: both partners purified
T2 construct: human uncoupling protein 1 (UCP1, SLC25A7), Uniprot P25874; Detergent-solubilised, with tetraoleoyl cardiolipin; also called UCP1; SLC25A7; source: Saccharomyces cerevisiae W303.1B, purified from mitochondria (Ni Sepharose, on-column Factor Xa cleavage); not shown: His8, N-terminal, cleaved

[4] = ITC, pH 6.0, 20 °C, mean ± standard deviation of three biological repeats (Fig. 2A-E)
[5] = ITC, single biological repeats (source data Fig. 2F)

Question: For `Nc1nc2c(ncn2[C@@H]2O[C@H](COP(=O)(O)OP(=O)(O)OP(=O)(O)O)[C@@H](O)[C@H]2O)c(=O)[nH]1` [GTP, guanosine triphosphate], which “binding affinity to UCP1 (in words)” value (UCP1 [1]; ITC) is on record?
Answer: Its value is “intermediary affinities”.

Question: What about the Kd (UCP1 [1]; [4]) of the same molecule?
Answer: The Kd was 3.77 ± 0.12 µM.

Question: What about the Kd (UCP1 [1]; [5]) of the same molecule?
Answer: Its Kd is 3.68 µM and 3.9 µM and 3.73 µM.

Question: What about the “isotherm data point (enthalpy change per injection)” value (UCP1 [1]; Molar ratio (Nucleotide/UCP) 0.120417, pH 6.0, 20 °C) of the same molecule?
Answer: The value was -20.3045.

Question: And the “isotherm data point (enthalpy change per injection)” value (UCP1 [1]; Molar ratio (Nucleotide/UCP) 0.181226, pH 6.0, 20 °C)?
Answer: Its value is -19.4276.

Question: What about the “isotherm data point (enthalpy change per injection)” value (UCP1 [1]; Molar ratio (Nucleotide/UCP) 0.242439, pH 6.0, 20 °C) of the same molecule?
Answer: The value was -18.5029.

Question: What about the “isotherm data point (enthalpy change per injection)” value (UCP1 [1]; Molar ratio (Nucleotide/UCP) 0.304059, pH 6.0, 20 °C) of the same molecule?
Answer: The value was -18.707.

Question: And the “isotherm data point (enthalpy change per injection)” value (UCP1 [1]; Molar ratio (Nucleotide/UCP) 0.366087, pH 6.0, 20 °C)?
Answer: The value was -18.3445.

Question: What about the “isotherm data point (enthalpy change per injection)” value (UCP1 [1]; Molar ratio (Nucleotide/UCP) 0.428528, pH 6.0, 20 °C) of the same molecule?
Answer: Its value is -17.3071.

Question: And the “isotherm data point (enthalpy change per injection)” value (UCP1 [1]; Molar ratio (Nucleotide/UCP) 0.491383, pH 6.0, 20 °C)?
Answer: Its value is -16.412.

Question: What about the “isotherm data point (enthalpy change per injection)” value (UCP1 [1]; Molar ratio (Nucleotide/UCP) 0.554656, pH 6.0, 20 °C) of the same molecule?
Answer: The value was -17.0687.

Question: And the “isotherm data point (enthalpy change per injection)” value (UCP1 [1]; Molar ratio (Nucleotide/UCP) 0.618348, pH 6.0, 20 °C)?
Answer: Its value is -15.1625.

Question: And the “isotherm data point (enthalpy change per injection)” value (UCP1 [1]; Molar ratio (Nucleotide/UCP) 0.682464, pH 6.0, 20 °C)?
Answer: The value was -14.4377.

Question: What about the “isotherm data point (enthalpy change per injection)” value (UCP1 [1]; Molar ratio (Nucleotide/UCP) 0.747006, pH 6.0, 20 °C) of the same molecule?
Answer: The value was -12.3158.

Question: What about the “isotherm data point (enthalpy change per injection)” value (UCP1 [1]; Molar ratio (Nucleotide/UCP) 0.811976, pH 6.0, 20 °C) of the same molecule?
Answer: Its value is -11.9274.

Question: What about the “isotherm data point (enthalpy change per injection)” value (UCP1 [1]; Molar ratio (Nucleotide/UCP) 0.877378, pH 6.0, 20 °C) of the same molecule?
Answer: The value was -11.0392.

Question: What about the “isotherm data point (enthalpy change per injection)” value (UCP1 [1]; Molar ratio (Nucleotide/UCP) 0.943214, pH 6.0, 20 °C) of the same molecule?
Answer: Its value is -8.777.

Question: What about the “isotherm data point (enthalpy change per injection)” value (UCP1 [1]; Molar ratio (Nucleotide/UCP) 1.00949, pH 6.0, 20 °C) of the same molecule?
Answer: The value was -7.389.

Question: And the “isotherm data point (enthalpy change per injection)” value (UCP1 [1]; Molar ratio (Nucleotide/UCP) 1.0762, pH 6.0, 20 °C)?
Answer: Its value is -6.878.

Question: And the “isotherm data point (enthalpy change per injection)” value (UCP1 [1]; Molar ratio (Nucleotide/UCP) 1.14336, pH 6.0, 20 °C)?
Answer: Its value is -5.2039.

Question: And the “isotherm data point (enthalpy change per injection)” value (UCP1 [1]; Molar ratio (Nucleotide/UCP) 1.21096, pH 6.0, 20 °C)?
Answer: The value was -4.2804.

Question: And the “isotherm data point (enthalpy change per injection)” value (UCP1 [1]; Molar ratio (Nucleotide/UCP) 1.27901, pH 6.0, 20 °C)?
Answer: Its value is -2.298.

Question: What about the “isotherm data point (enthalpy change per injection)” value (UCP1 [1]; Molar ratio (Nucleotide/UCP) 1.34751, pH 6.0, 20 °C) of the same molecule?
Answer: The value was -2.606.

Question: And the “isotherm data point (enthalpy change per injection)” value (UCP1 [1]; Molar ratio (Nucleotide/UCP) 1.41647, pH 6.0, 20 °C)?
Answer: The value was -2.5907.

Question: And the “isotherm data point (enthalpy change per injection)” value (UCP1 [1]; Molar ratio (Nucleotide/UCP) 1.48589, pH 6.0, 20 °C)?
Answer: The value was -0.9936.

Question: What about the “isotherm data point (enthalpy change per injection)” value (UCP1 [1]; Molar ratio (Nucleotide/UCP) 1.55577, pH 6.0, 20 °C) of the same molecule?
Answer: The value was -1.473.

Question: What about the “isotherm data point (enthalpy change per injection)” value (UCP1 [1]; Molar ratio (Nucleotide/UCP) 1.62611, pH 6.0, 20 °C) of the same molecule?
Answer: Its value is -0.9907.

Question: And the “isotherm data point (enthalpy change per injection)” value (UCP1 [1]; Molar ratio (Nucleotide/UCP) 1.69692, pH 6.0, 20 °C)?
Answer: The value was -0.3592.

Question: What about the “isotherm data point (enthalpy change per injection)” value (UCP1 [1]; Molar ratio (Nucleotide/UCP) 1.76819, pH 6.0, 20 °C) of the same molecule?
Answer: Its value is -0.2978.

Question: And the “isotherm data point (enthalpy change per injection)” value (UCP1 [1]; Molar ratio (Nucleotide/UCP) 1.83995, pH 6.0, 20 °C)?
Answer: The value was 0.5154.

Question: What about the “isotherm data point (enthalpy change per injection)” value (UCP1 [1]; Molar ratio (Nucleotide/UCP) 1.91217, pH 6.0, 20 °C) of the same molecule?
Answer: The value was 0.06373.

Question: And the “isotherm data point (enthalpy change per injection)” value (UCP1 [1]; Molar ratio (Nucleotide/UCP) 1.98488, pH 6.0, 20 °C)?
Answer: Its value is 0.2135.

Question: And the “temperature shift (ΔTm)” value (UCP1 [2]; 1 mM nucleotide, pH 6.0, detergent-solubilised UCP1, mean of three biological repeats)?
Answer: Its value is 16.2 °C.

Question: What about the ΔTm at 1000 µM (UCP1 [2]; pH 6, 1 mM nucleotide, pH 6.0, single repeats (source data Fig. 1D)) of the same molecule?
Answer: Its ΔTm at 1000 µM is 16 °C.

Question: What about the ΔTm at 1000 µM (UCP1 [2]; pH 6.5, 1 mM nucleotide, pH 6.5, single repeats (source data Fig. 1D)) of the same molecule?
Answer: Its ΔTm at 1000 µM is 12 °C.

Question: And the ΔTm at 1000 µM (UCP1 [2]; pH 7, 1 mM nucleotide, pH 7.0, single repeats (source data Fig. 1D))?
Answer: The ΔTm at 1000 µM was 7.8 °C.

Question: And the ΔTm at 1000 µM (UCP1 [2]; pH 7.5, 1 mM nucleotide, pH 7.5, single repeats (source data Fig. 1D))?
Answer: Its ΔTm at 1000 µM is 3.6 °C.

Question: How did the Kd (UCP1 [1]; [4]) turn out when `O=c1ccn([C@@H]2O[C@H](COP(=O)(O)OP(=O)(O)OP(=O)(O)O)[C@@H](O)[C@H]2O)c(=O)[nH]1` [UTP, uridine triphosphate] was run?
Answer: The Kd was 2.86 ± 0.49 µM.

Question: And the Kd (UCP1 [1]; [5])?
Answer: The Kd was 3.37 µM and 2.82 µM and 2.4 µM.

B1: Pro-macrobody PMb65 (VHH)
VHH: QVQLVESGGGLVQAGGSLRLSCAPSGRTSSTYTMGWFRQAPGKEREFVAAISWTGTPYYADSVKGRFTISRDNAKNTVYLQMNSLKPEDTAVYYCAAARPGLFIFVSDYARTAKYDYWGQGTQVTVPP
notes: llama nanobody CA9865; Expressed from the vector pBXNPHM3 (Addgene 110099); also called CA9865; source: E. coli MC1061, purified (Ni-NTA, 3C cleavage, Strep-Tactin XT); not shown: His-tagged MBP, N-terminal, cleaved
Question: Does B1 bind [3]?
Answer: Result: binds
